These results are taken from US11535597B2, “Photoreactive ligands and uses thereof” (The Scripps Research Institute, priority 2017, dated 2022).

The structures appear in SMILES notation.

This test has as its system proteins in HEK293T cells. As to the kind of experiment: MS-based mapping of FFF probe-modified peptides (isoTOP, sites of labeling). Format: binding, human. As to the method: Preparation and analysis was adapted from methods previously reported. In brief, for global mapping of fragment probe-modified peptides, separate 10 cm dishes of cells were treated with probes (200-250 μM) in 3.0 mL of DMEM (serum-free) and (if applicable) competitor ligands, proteomes harvested and subjected to click chemistry conditions with either light or heavy isotopically labeled biotin-TEV-azide (10 μL of 5 mM stocks in DMSO, final concentration=100 μM), TCEP, ligand and CuSO4 as detailed above. The samples were allowed to react for 1 h at which point the samples were centrifuged (16,000 g, 5 min, 4° C.). The resulting pellets were sonicated in ice-cold methanol (500 μL) and the resuspended light- and heavy-labeled samples were then combined and centrifuged (16,000 g, 5 min, 4° C.). The pellets were then solubilized in PBS containing 1.2% SDS (1 mL) with sonication and heating (5 min, 95° C.). Samples were transferred to falcon tubes containing DPBS (5 mL), to which a 100 μL of streptavidin-agarose beads slurry was added. After incubation, the beads (3 hr) were pelleted by centrifugation (1,400 g, 3 min) and were washed (2×10 mL PBS and 2×10 mL water). The beads were transferred to eppendorf tubes with 1 mL DPBS, centrifuged (1,400 g, 3 min), and resuspended in PBS containing 6 M urea. To this was added 10 mM DTT (25 μL of a 200 mM stock in water) and the beads were incubated at 65° C. for 15 mins. 20 mM iodoacetamide (25 μL of a 400 mM stock in water) was then added and allowed to react at 37° C. for 30 mins with shaking. The bead mixture was diluted with 900 μL PBS, pelleted by centrifugation (1,400 g, 3 min), and resuspended in 200 μL 2M urea (DPBS) containing trypsin and CaCl2 as described above. The beads were separated from the digest by centrifugation (1,000 g, 1 min), washed (2×1 mL PBS and 2×1 mL water) and then transferred to fresh eppendorfs with 1 mL water. The washed beads were washed once further in 150 μL TEV buffer (50 mM Tris, pH 8, 0.5 mM EDTA, 1 mM DTT) by centrifugation (1,400 g, 3 min) and the resuspended in 150 μL TEV buffer. 5 μL TEV protease (80 μM) was added and the reactions were rotated overnight at 29° C. The TEV digest was separated from the beads by centrifugation (1,400 g, 3 min) and the beads were washed once with water (100 μL). The samples were then acidified to a final concentration of 5% (v/v) formic acid and stored at −80° C. prior to analysis.
The resulting probe-modified peptides were collected for MS analysis, which was performed as described above with differences in the salt bumps applied in the chromatographic gradients which in this case were 0%, 30%, 60%, 90% and 100% NH4OAc (500 μM). The protein identification searches of the MS data were performed with the following changes applied to identify the peptides modified with the corresponding fragment probe and the cleaved TEV tag. All amino acids were considered as possible residues for modification. To facilitate the computational searches, sets of up to 3 amino acids were searched using ProLuCID and filtered with DTASelect as described above. […] The isoTOP ratios for probe labeled peptides were quantified using the in-house software CIMAGE.
For each protein in the site-of-labeling dataset, the UniProtKB accession number was used to map and collect relevant structures from the RCSB Protein Data Bank (PDB) fulfilling the following criteria: structures determined by X-ray crystallography, wild-type protein, Homo sapiens as the sole source organism. […] Fpocket 2.0 was used to detect potential binding pockets for the resultant structures with all parameters set at recommended default. Pockets with volume less than 500 Å^3 were removed from output prior to further analysis. Residues surrounding fpocket predicted binding pockets for each protein were collected to determine the number of residues overlapping with isoTOP peptides.

With `C#CCCC1(CCC(=O)Nc2ccc3oc(=O)ccc3c2)N=N1` [probe 3, 3-(3-(But-3-yn-1-yl)-3H-diazirin-3-yl)-N-(2-oxo-2H-chromen-6-yl)propanamide], the “Labeled Peptide of H2AFZ Histone H2A.Z” value (Accession P0C0S5, residues of probe-labeled peptide, family Transcription factors, Regulators) is reported as 47-75. Also, the “Labeled Peptide of GRWD1 Glutamate-rich WD repeat-containing protein 1” value (Accession Q9BQ67, residues of probe-labeled peptide, family Uncategorized) is given as 183-198. In addition, the “Labeled Peptide” value runs as follows: (H2AFZ Histone H2A.Z, residues of probe-modified peptide) 47-75; (HSD17B4 Peroxisomal multifunctional enzyme type 2, residues of probe-modified peptide) 169-183; (LMNA Prelamin-A/C (P02545), residues of the probe-labeled peptide) 172-180; (NONO (Q15233), residues of the probe-labeled peptide) 127-135; (P00387 CYB5R3 NADH-cytochrome b5 reductase 3) 235-241; (P12532 CKMT1B Creatine kinase U-type, mitochondrial) 257-269. Further, the “Labeled Peptide” value (P38117 ETFB Electron transfer flavoprotein subunit beta) is on record as 36-51; the “Labeled Peptide” value (P51659 HSD17B4 multifunctional enzyme type 2) is on record as 169-183; the “Labeled Peptide” value (PARP1 (P09874), residues of the probe-labeled peptide) is 954-1000; the “Labeled Peptide” value (Q08211 DHX9 ATP-dependent RNA helicase A) was 448-456; the “Labeled Peptide” value (protein ABHD10 (Q9NUJ1), residues of probe-labeled peptide) is on record as 285-300; the “Labeled Peptide” value (protein ACTL6A (O96019), residues of probe-labeled peptide) was 25-34. Moreover, the “Labeled Peptide” value by setting is: (protein ANAPC7 (Q9UJX3), residues of probe-labeled peptide) 407-424; (protein CDK5RAP3 CDK5 regulatory subuni-associated protein 3 (Q96JB5), residues of probe-labeled peptide) 351-367; (protein CKMT1B Creatine kinase U-type, mitochondria, residues of probe-labeled peptide) 257-269; (protein CKMT1B Creatine kinase U-type, motochondrial (P12532), residues of probe-labeled peptide) 257-269; (protein CYB5R3 NADH-cytochrome b5 reductase 3 (P00387), residues of probe-labeled peptide) 235-241; (protein CYB5R3 NADH-cytochrome b5 reductase 3, residues of probe-labeled peptide) 235-241. Also, the “Labeled Peptide” value is, setting by setting: (protein DDX17 Propable ATP-dependent RNA helicase DDX17 (Q92841), residues of probe-labeled peptide) 536-547; (protein DHX9 ATP-dependent RNA helicase A (Q08211), residues of probe-labeled peptide) 448-456; (protein DHX9 ATP-dependent RNA helicase A, residues of probe-labeled peptide) 448-456; (protein EEF1G Elongation factor 1-gamma (P26641), residues of probe-labeled peptide) 58-85; (protein ETFB Electron transfer flavoprotein subunit beta (P38117), residues of probe-labeled peptide) 36-51; (protein ETFB Electron transfer flavoprotein subunit beta, residues of probe-labeled peptide) 36-51. Further, the “Labeled Peptide” value (protein NONO Non-POU domain-containing octamer-binding protein, residues of the probe-labeled peptide) is reported as 127-135; the “Labeled Peptide” value (protein PGK1 Phosphoglycerate kinase 1 (P00558)) was 333-350; the “Labeled Peptide” value (protein PGK1 Phosphoglycerate kinase 1, residues of the probe-labeled peptide) was 333-350; the “Labeled Peptide” value (protein PSMA2 Proteasome subunit alpha type-2 (P25787)) is on record as 19-39; the “Labeled Peptide” value (protein PSMA2 Proteasome subunit alpha type-2, residues of the probe-labeled peptide) is on record as 19-39; the “Labeled Peptide” value (protein Q96I99 SUCLG2 Succinyl-CoA ligase) is 151-160. Further, the “Labeled Peptide” value is given as 91-122 (protein Q01105 SET Protein SET) and 245-252 (protein RBMXL1 RNA binding motif protein, X-linked-like-1 (Q96E39)). Also, the “Labeled Peptide (residues) of PGK1 Phosphoglycerate kinase 1” value (P00558, peptide QIVWNGPVGVFEWEAFAR, PDB 2WZB) was 333-350.

With `C#CCCC1(CCC(=O)NCCc2ccc3c(c2)OCO3)N=N1` [probe 15, N-(2-(Benzo[d][1,3]dioxol-5-yl)ethyl)-3-(3-(but-3-yn-1-yl)-3H-diazirin-3-yl)propanamide], the “Labeled Peptide” value reads like this: (MCM4 (P33991), residues of the probe-labeled peptide) 502-516; (NUDT12 (Q9BQG2), residues of the probe-labeled peptide) 143-166; (protein FDFT1 Squalene synthase (P37268), residues of probe-labeled peptide) 78-92; (protein FDFT1 Squalene synthase, residues of probe-labeled peptide) 78-92.
